Reference: PubChem BioAssay AID463074 (Broad Institute, 2010)
Active and inactive are the calls of the source.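 How the source made its calls: active means AC50 no more than tenfold above the top dose tested, or full inhibition at every dose with a flat fit (cut at about 19 µM in these data); inconclusive means flat curve fit with inhibition between 30% and 70%, or poor fit; inactive means AC50 more than tenfold above the top dose tested.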

test system: HMLE_sh_eGFP viability, CellTiter-Glo luminescence, 72 h; test: cytotoxicity in HMLE control line with eGFP shRNA, dose response, counter-screen for HMLE_sh_ECad selective toxicity project, cell-based, HMLE_sh_eGFP, luminescence (AID 463074);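 further: counterscreen control line to flag general toxicity for the HMLE_sh_ECad screen; potency for loss of viability as luminescence drops below DMSO wells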

SMILES	AC50
COc1ccc(Cn2c3ccc(OC)cc3c3nc4ccccc4nc32)cc1	17.8 µM
ClC1=C(Cl)C2(Cl)C3C(Cl)C=CC3C1(Cl)C2(Cl)Cl (stereo not drawn)	6.29 µM
C[C@]12CC[C@H]3C(CCC4(O)CC(O)CC[C@]34C=O)C1=CC[C@H]2c1ccc(=O)oc1 (stereo partly drawn)	3.6 µM
O=S(=O)(c1ccc(Cl)cc1)N1CCN(Cc2ccc(O)c3ncccc23)CC1	6.21 µM
Fc1cccc(-n2c(-c3cccs3)nc3nc4ccccc4nc32)c1	2.32 µM
CC(=O)NC1=C(C#N)C(c2ccccc2)c2c(ccc3ccccc23)O1 (stereo not drawn)	3.44 µM
Cc1cc(C(=O)N/N=C/c2cc(Br)cc(Br)c2OC(=O)c2cccc(F)c2)n[nH]1	3.3 µM
S=c1[nH]nc(-c2ccccc2)n1/N=C/c1ccc(-c2ccccc2Cl)o1	5.93 µM
COc1cc(-c2ccc3c(=O)c4ccccc4n(C)c3c2)cc(OC)c1OC	8.21 µM
Cn1cccc1/C=C1/C(=O)NC(=S)N(Cc2ccc(F)cc2)C1=O	1.7 µM
C=CCCC(=O)Nc1nc(C)c(-c2csc(Nc3ccc(Cl)cc3)n2)s1	3.83 µM
Cc1nn(-c2ccccc2)c2nc(N)c(C#N)c(-c3ccc(C(C)(C)C)cc3)c12	3.24 µM
Nc1c(S(=O)(=O)c2cccs2)c2nc3ccccc3nc2n1/N=C/c1cccc(O)c1	3.87 µM
CCc1c(C)sc2nc(C(C)C)nc(SCC(=O)N3CCc4ccccc4C3)c12	4.22 µM
COc1cc(SC#N)ccc1N=Cc1c(C)[nH]n(-c2ccc(C)c(C)c2)c1=O	4.52 µM
Cc1cccc2[nH]c3c(N4CC=C(c5ccc(F)cc5)CC4)ncnc3c12	5.01 µM
COc1ccc2c(C)nc(Nc3nc(C)c(C)c(=O)[nH]3)nc2c1	7.16 µM
O=C(Nc1ccccc1)Nc1cc(Cl)cc(Cl)c1	5.13 µM
O=C/C=C/c1c(-c2ccccc2)cc2oc3ccccc3cc1-2	9.18 µM
COc1ccc(C(=O)Nc2cccc(/C=C/c3nc4ccccc4c(=O)[nH]3)c2)cc1	3.58 µM
COc1ccc(C(=O)Nc2ccc(Nc3ccccc3)cc2)cc1[N+](=O)[O-]	4.19 µM
Cc1ccnc(Nc2nc(-c3ccc(O)cc3O)cs2)c1	14.9 µM

SMILES	AC50
FC(F)(F)c1cccc(Nc2ncnc3ccccc23)c1	1.75 µM
Cn1c(-c2ccsc2)c(-c2cccs2)c2cc(-c3ccc4[nH]ccc4c3)ccc21	> 19.5 µM (inactive)
CCCSc1nsc(NC(=O)Nc2ccc(F)cc2F)n1	4.87 µM
COc1ccccc1/C=C1\SC(=S)N(CCC(=O)NCCCn2ccnc2)C1=O	18.6 µM
O=c1cc(N2CCCCC2)c(-c2ccccc2)nn1Cc1c(Cl)cccc1Cl	5.72 µM
Cc1ccc(-n2c(-c3cccs3)nc3ccccc3c2=O)cc1	3.36 µM
CNC(C)C(=O)NC(C(=O)N1CCCC1C(=O)NNc1ccccc1)C(C)C (stereo not drawn)	6.41 µM
CCCCCCSc1cc(-c2nc3cc(C)ccn3c2NCCCC)ccc1OC	8.88 µM
Oc1ccc(N=Nc2ccc3ccccc3c2)cc1	7.43 µM
O=C(/C=C/c1ccc(F)cc1)c1ccccc1Br	3.57 µM
N#C/C(=C\c1c[nH]c2ccc(Br)cc12)c1ccccn1	10.3 µM
CCOC(=O)C1=C(CSc2nc3ccccc3s2)NC(=O)NC1c1ccc(OC)cc1 (stereo not drawn)	10.8 µM
Cc1cc(SCC(=O)N/N=C/c2ccc(O)cc2O)c(C)cc1Br	4.42 µM
NC(=O)CC(NC(=O)Cc1ccc(Br)cc1)c1ccc(N2CCN(c3ccccc3)CC2)c([N+](=O)[O-])c1 (stereo not drawn)	17.6 µM
Cn1nnnc1Sc1ncnc2scc(-c3cc4ccccc4o3)c12	1.17 µM
COC(=O)c1ccc(COc2ccccc2/C=C(\C#N)C(=O)Nc2c(C)cccc2C)cc1	2.86 µM
C=C(C)COc1ccc(-c2nc(N)ncc2-c2ccc(Cl)cc2)c(O)c1	4 µM
Cc1ccc(C(=O)NC2c3ccccc3-c3ccccc32)cc1	0.816 µM
NCCNc1ccc(C(=O)N2c3ccccc3Sc3ccccc32)cc1[N+](=O)[O-]	8.03 µM
Cc1ccc(N/N=C/c2c(O)n(-c3ccccc3)c(=O)[nH]c2=O)cc1	3.87 µM
CCn1c(C(=O)O)c(CC(=O)Nc2cccc(C(F)(F)F)c2)c2ccccc21	14.6 µM
NC(=O)CC(NC(=O)Cc1ccc(Br)cc1)c1ccc(NCc2cc(F)ccc2F)c([N+](=O)[O-])c1 (stereo not drawn)	3.36 µM

SMILES	AC50
N/C(=N\N=C/c1ccc(F)cc1)N/N=C\c1ccc(F)cc1	5.13 µM
COc1ccc(/C=C/c2nc3cc(-c4ccccc4)ccc3o2)cc1O	9.18 µM
Fc1ccc(C(c2ccc(F)cc2)N2CCN(C/C=C/c3ccccc3)CC2)cc1	7.18 µM
CN(C)c1ccc(/C=N/NC(=O)C(=O)/C=C2\NC3(CCCC3)Cc3ccccc32)cc1	6.5 µM
Cc1ccccc1C(=O)Nc1ccc(-c2nc3ccc(C(=O)c4ccccc4)cc3[nH]2)cc1	1.8 µM
O=C(CSCc1cccc(Cl)c1)Nc1ccccc1-c1ccccc1	> 19.5 µM (inactive)
N#C/C(=C/c1ccc(O)c(O)c1)C(=O)NCc1ccc(Cl)cc1	13.7 µM
CC(C)(C)c1nn(-c2ccccc2)c2[nH]c(=O)c(C=O)cc12	8.18 µM
Clc1cccc(CN2CCc3c([nH]c4ccccc34)C2)c1Cl	6.15 µM
Cc1cc2c(cc1C)C(c1ccccc1OC(C)C)CC(=O)N2 (stereo not drawn)	1.54 µM
CC(C)n1cnc2c(NCc3ccccc3)cc(N[C@H](C)CO)cc21	7.36 µM
C/C(=N/Nc1ccc([N+](=O)[O-])cc1)c1ccc(C)cc1C	7.68 µM
COc1cccc(-c2sc3ccc(OC)cc3c2C#CC2(O)CCCCC2)c1	7.25 µM
O=C(Nc1cc(C(F)(F)F)cc(C(F)(F)F)c1)Nc1cnn(-c2ccc([N+](=O)[O-])cc2)c1C(F)(F)F	0.848 µM
CCOc1cc(N2CCOCC2)c(OCC)cc1NC(=O)CN1CCC(Cc2ccccc2)CC1	2.43 µM
Cc1cccc(NC2=C/C(=N/S(=O)(=O)c3cccs3)c3ccccc3C2=O)c1	0.934 µM
NC(=O)CC(NC(=O)Cc1cccc2ccccc12)c1ccc(NC2CCCCCCC2)c([N+](=O)[O-])c1 (stereo not drawn)	12 µM
CC(C)Cn1c(O)c(/C=C2\C=NN=C2c2ccccc2)sc1=S	3.54 µM
Cc1nn(-c2ccc(F)cc2)c(Cl)c1/C=C1\C(=O)Nc2ccccc21	2.34 µM
O=C(CCN1Cc2ccccc2C1)c1ccc2c(c1)OCCO2	15.1 µM
COc1ccc(-c2sc3ccc(N4CCOCC4)cc3c2C#CC2(O)CCCCC2)cc1	2.94 µM
O=C1NN(c2cccc(Br)c2)C(=O)/C1=C\c1ccccc1	6.97 µM

SMILES	AC50
COc1ccc2nc(N=Nc3ccc(O)c4ccccc34)sc2c1	3.27 µM
Cc1c(NC(=O)c2ccc([N+](=O)[O-])o2)cccc1-c1nc2ncccc2o1	6.52 µM
COc1ccc(-c2nc(NC(=O)c3cc(C(C)(C)C)nn3C)sc2C)cc1	14.2 µM
CC(=O)NC(c1cc(Cl)c2cccnc2c1O)C1CC1 (stereo not drawn)	9.04 µM
CCOC(=O)c1c(-c2ccc(Cl)cc2)csc1NC(=O)CNCc1ccco1	5.2 µM
O=Cc1ccc(Oc2cc(-c3ccccc3)nc(-c3ccccc3)n2)cc1	7.03 µM
Cc1c(C(=O)Nc2ccc(-c3nnc4n3CCCCC4)cc2)oc2c1ccc1ccccc12	5.66 µM
COc1ccc(Br)cc1C(=O)NC(=S)Nc1cc(-c2nc3ccccc3[nH]2)ccc1C	> 19.5 µM (inactive)
N#Cc1c(-c2ccccc2)nc(SCc2cccc(Cl)c2)[nH]c1=O	7.69 µM
Oc1cccc(-c2nc3c4c(ncn3n2)-c2ccccc2CC42CCCC2)c1	1.5 µM
CCOC(=O)C(=Cc1ccc(-n2ccnc2)cc1)C(=O)OCC	7.68 µM
CCOC(=O)c1c(C)sc2c1N(C(=O)CCl)c1cc(Cl)ccc1S2	3.66 µM
C/C(N=Nc1nc2ccccc2s1)=N\Nc1ccccc1O	6.1 µM
CCNC(=S)N1N=C2c3ccccc3CCC2C1c1ccc(F)cc1 (stereo not drawn)	2.91 µM
CC(Cc1ccccc1)NCCC(c1ccccc1)c1ccccc1 (stereo not drawn)	8.73 µM
C=CCn1c(CNc2ccccc2)nnc1SCC(=O)N/N=C/c1ccc(O)cc1O	3.23 µM
CCc1ccc2nc(N(CCCN(C)C)C(=O)c3ccc(S(=O)(=O)N4CCCc5ccccc54)cc3)sc2c1	6.98 µM
COc1cccc(/C=C/C(=C2/C(=O)N(c3ccccc3)N=C2C)c2ccc(Br)cc2)c1OC	> 19.5 µM (inactive)
Nc1nc(Nc2ccccc2)nc(NC2CCCCC2)c1[N+](=O)[O-]	6.81 µM
CC(C)OCCCNC(=O)c1c(N)n(Cc2cccs2)c2nc3ccccc3nc12	4.3 µM
Cc1cc(-c2csc3nc[nH]c(=S)c23)cc(C)c1C	18.8 µM
O=c1cc(NS(=O)(=O)c2ccccc2)nc(SCc2ccc(Cl)cc2)[nH]1	5.9 µM

SMILES	AC50
CSc1ccccc1C(=O)Nc1cc(C)ccc1C	> 19.5 µM (inactive)
O=C1c2cc(Br)ccc2N(Cc2ccc(Br)cc2)S(=O)(=O)C1c1cc(Cl)c(Cl)cc1[N+](=O)[O-] (stereo not drawn)	3.07 µM
Cc1cccc(-n2cc(-c3ccccc3)c3c(N4CCOCC4)ncnc32)c1	4.59 µM
C/C(=N/NC(=O)c1ccc(-c2ccccc2)cc1)c1cc(O)cc(O)c1	3.85 µM
O=C1c2c(Br)c(Br)c(Br)c(Br)c2C(=O)N1c1ccccn1	3.65 µM
O=C(Nc1ccc(-c2csc(Nc3ccc(Cl)cc3)n2)cc1)c1cc([N+](=O)[O-])cc(C(F)(F)F)c1	3.08 µM
CCCOC(=O)C(=O)NNc1ccccc1	1.81 µM
CCc1cc(-c2n[nH]c(C)c2Oc2ccc(C(C)C)cc2)c(O)cc1O	3.65 µM
CCOc1cc(S(=O)(=O)Nc2ccc(CC)cc2)ccc1Cl	7.02 µM
O=Cc1cc2ccccc2nc1SCc1ccc(Cl)cc1	5.69 µM
CCOc1cc(CNCCO)cc(Br)c1OCc1ccc(Cl)cc1Cl	6.68 µM
CC1(C)CC2CC(C)(CN2/C=N/c2sc3c(c2C#N)CC(C)(C)NC3(C)C)C1 (stereo not drawn)	2.59 µM
O=C(Nc1ccc2c(c1)OCCO2)c1cccc2nc3ccccc3nc12	3.18 µM
Cc1ccccc1-c1cc(C(=O)Nc2sc(C(=O)OC(C)C)c(C)c2C#N)c2ccccc2n1	2.66 µM
O=C(C#Cc1ccccc1)Nc1cccc(F)c1	3.43 µM
O=C(Nc1ccccc1)C1=C[C@@H](c2ccc(C(F)(F)F)cc2)C[C@@H](OCc2ccc(CO)cc2)O1	7.43 µM
COc1ccc(-n2c(Cc3cccn3C)nnc2SCC(=O)Nc2cccc(Cl)c2)cc1	> 19.5 µM (inactive)
O=[N+]([O-])c1cc(-c2cnc3ccccc3n2)ccc1Oc1ccc(Cl)cc1	3.38 µM
CCc1c(C2(O)CCCCC2)[nH]c2c(C(=O)OC)cc(Cl)cc12	2.69 µM
CC(C)c1cccc(C(C)C)c1OC(=O)[C@H]1OC(c2ccc(Br)cc2)=C[C@@H]1c1ccc(Br)cc1	4.64 µM
